Several values for one entry are separate records, joined by “and”; a condition that tells them apart may be missing. Equal values may be shown once.
Columns and labels:
[1] = molecular target: human AChE (hAChE; EC 3.1.1.7) (Homo sapiens, UniProt P22303); experiment: biochemical; conditions: for IC50: mean of at least three experiments, read-out: IC50 hAChE ± STD; for SI (hBChE/hAChE): ratio IC50(hBChE)/IC50(hAChE)
Experimental: (§1) For that purpose, Ellman’s colorimetric assay was used[35].
(§2) The catalytic activity of both cholinesterases was determined by standard Ellman’s method adapted for 96-well plates. All tested inhibitors were freshly prepared in 50% DMSO/50% methanol at 10 mM concentration as stock solutions and then diluted in 0.1 M phosphate buffer, pH 7.4. […] The mixture was pre-incubated at 37 °C for 15 min and subsequently substrate (acetylthiocholine iodide or butyrylthiocholine iodide) was added to the final concentration of 1000 μM. The final volume of the reaction was 100 μL. The catalytic activity was evaluated as the amount of product (%) formed by enzyme after 10 min of incubation at 37 °C. The IC50 values from three independent experiments for each inhibitor concentration in triplicate were calculated using non-linear regression curve analysis in Prism version 7 Software (GraphPad Software Inc., San Diego, CA).

[2] = molecular target: human butyrylcholinesterase (hBChE; EC 3.1.1.8) (Homo sapiens, UniProt P06276); experiment: biochemical; conditions: mean of at least three experiments; read-out: IC50 hBChE ± STD
Experimental: as §1, §2

[3] = in vitro; conditions: PAMPA, pH 7.4
Experimental: (§4) The PAMPA was used as the non-cell-based in vitro assay to predict BBB penetration carried out in a coated 96-well membrane filter[44]^,[52]. […] Tested compounds were dissolved first in DMSO and then diluted with PBS (pH 7.4) to achieve the final concentration of 100 µM in the donor well. […] An aliquot of 300 µL of the donor solution (VD) was added to the donor wells and the donor filter plate was carefully put on the acceptor plate so that coated membrane was "in touch" with both donor solution and acceptor buffer. […] The concentration of the tested compound in both the donor and acceptor wells was assessed after 3, 4, 5, and 6 h of incubation, respectively, in quadruplicate using a multi-plate reader Spark (Tecan GmbH, Grödig, Austria) at the maximum absorption wavelength of each compound. Also prepared were solutions at the theoretical equilibrium of the given compound (i.e. the theoretical concentration if the donor and acceptor compartment were simply combined).

[4] = test system: human neuroblastoma cell line (SH-SY5Y); experiment: MTT cytotoxicity on SH-SY5Y; conditions: 24 h, read-out: IC50 ± SEM SH-SY5Y
Experimental: (§5) Briefly, HepG2 and SH-SY5Y cells were seeded into 96-well plates in 100 µL and density of 15 × 10^3 and 20 × 10^3 cells per well, respectively. Cells were allowed to attach overnight. The stock solutions of tested compounds were prepared in DMSO (Sigma-Aldrich), further serially diluted in cultivation medium and added to the cells in 96-well culture plate. […] After 24 h was the medium aspirated and 100 µL MTT solution (0.5 mg/mL) in serum free DMEM medium was added to each well. The cells were then incubated for one hour. The medium was then aspirated and purple crystals of MTT formazan were dissolved in 100 µL DMSO under shaking. The absorbance was measured with a multimode microplate reader Spark® (Tecan Trading AG, Männedorf, Switzerland) at test wavelength of 570 nm.
(§6) The data were obtained from three independent experiments performed in triplicates. The IC50 values were expressed as a mean ± standard error of the mean (SEM).

[5] = molecular target: T1, hMAO-A (Homo sapiens, UniProt P21397); experiment: hMAO-A inhibition, kynuramine substrate, HPLC-MS; format: biochemical; conditions: residual enzyme activity; for % of MAO-A activity (1 µM): compound at 1 µM; for % of MAO-A activity (10 µM): compound at 10 µM
T1 construct: purchased Sigma-Aldrich (St. Louis, MO, USA)
T1 sequence (P21397 1-527): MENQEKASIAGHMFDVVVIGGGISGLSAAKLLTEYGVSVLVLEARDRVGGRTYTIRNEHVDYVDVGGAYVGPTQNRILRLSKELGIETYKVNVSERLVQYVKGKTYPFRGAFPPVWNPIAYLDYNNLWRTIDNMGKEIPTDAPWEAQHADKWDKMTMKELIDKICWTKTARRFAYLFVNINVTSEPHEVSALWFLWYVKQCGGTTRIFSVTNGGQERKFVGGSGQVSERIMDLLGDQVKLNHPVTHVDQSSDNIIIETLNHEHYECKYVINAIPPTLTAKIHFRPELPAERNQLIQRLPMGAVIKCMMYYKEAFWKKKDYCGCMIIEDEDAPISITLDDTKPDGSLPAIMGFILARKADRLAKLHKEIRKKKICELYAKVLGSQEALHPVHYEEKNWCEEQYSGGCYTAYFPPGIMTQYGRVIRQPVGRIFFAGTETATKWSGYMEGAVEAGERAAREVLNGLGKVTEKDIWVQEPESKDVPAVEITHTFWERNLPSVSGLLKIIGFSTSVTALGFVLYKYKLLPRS
Experimental: (§3) The hMAO-A and hMAO-B enzymes were purchased from Sigma-Aldrich (St. Louis, MO, USA). […] The mixture was pre-incubated at 37 °C for 5 min and subsequently substrate kynuramine was added to the final concentration of 60 µM in the case of hMAO-A and 30 µM in the case of hMAO-B. The final volume of reaction mixture was 0.1 mL. The whole reaction mixture was incubated at 37 °C for 30 min. The reaction was stopped by the addition of 200 µL acetonitrile/methanol mixture (ratio 1:1) and cooling down to 0 °C. […] Eluents: (A) 0.1% formic acid in water; (B) 0.1% formic acid in acetonitrile.

[6] = molecular target: T2, hMAO-B (Homo sapiens, UniProt P27338); experiment: biochemical; conditions: for % of MAO-B activity (1 µM) / % of MAO-B activity (10 µM): residual enzyme activity; for % of MAO-B activity (1 µM): compound at 1 µM; for % of MAO-B activity (10 µM): compound at 10 µM; for IC50: IC50 hMAO-B ± STD, mean of at least three experiments
T2 construct: purchased Sigma-Aldrich (St. Louis, MO, USA)
T2 sequence (P27338 1-520): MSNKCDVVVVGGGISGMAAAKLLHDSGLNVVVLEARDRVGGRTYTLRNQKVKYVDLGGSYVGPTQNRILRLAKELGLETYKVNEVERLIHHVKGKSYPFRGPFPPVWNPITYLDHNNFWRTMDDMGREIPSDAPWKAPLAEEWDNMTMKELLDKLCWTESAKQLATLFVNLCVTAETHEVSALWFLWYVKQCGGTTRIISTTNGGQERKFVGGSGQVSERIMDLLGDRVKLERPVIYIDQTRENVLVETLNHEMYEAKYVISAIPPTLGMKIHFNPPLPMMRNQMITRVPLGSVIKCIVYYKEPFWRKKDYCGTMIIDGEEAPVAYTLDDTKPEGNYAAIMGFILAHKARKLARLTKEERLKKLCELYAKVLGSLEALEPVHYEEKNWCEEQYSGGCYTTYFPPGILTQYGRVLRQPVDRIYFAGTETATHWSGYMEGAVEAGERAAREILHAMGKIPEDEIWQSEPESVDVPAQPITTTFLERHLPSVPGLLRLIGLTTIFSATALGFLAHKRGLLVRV
Experimental: as §3

[7] = test system: human hepatocellular carcinoma cell line (HepG2); experiment: MTT cytotoxicity on HepG2; conditions: HepG2, 24 h, read-out: IC50 ± SEM HepG2
Experimental: as §5, §6

[8] = class from PAMPA Pe
Experimental: as §4

[9] = test system: SH-SY5Y cells; design: method as in PMID 25792506; conditions: 10, 50 and 100 µM, MTT; cited from earlier work
[10] = test system: human hepatic stellate cells; design: method as in PMID 25792506; conditions: cited from earlier work

Sequence of human butyrylcholinesterase (hBChE; EC 3.1.1.8) (P06276 29-602): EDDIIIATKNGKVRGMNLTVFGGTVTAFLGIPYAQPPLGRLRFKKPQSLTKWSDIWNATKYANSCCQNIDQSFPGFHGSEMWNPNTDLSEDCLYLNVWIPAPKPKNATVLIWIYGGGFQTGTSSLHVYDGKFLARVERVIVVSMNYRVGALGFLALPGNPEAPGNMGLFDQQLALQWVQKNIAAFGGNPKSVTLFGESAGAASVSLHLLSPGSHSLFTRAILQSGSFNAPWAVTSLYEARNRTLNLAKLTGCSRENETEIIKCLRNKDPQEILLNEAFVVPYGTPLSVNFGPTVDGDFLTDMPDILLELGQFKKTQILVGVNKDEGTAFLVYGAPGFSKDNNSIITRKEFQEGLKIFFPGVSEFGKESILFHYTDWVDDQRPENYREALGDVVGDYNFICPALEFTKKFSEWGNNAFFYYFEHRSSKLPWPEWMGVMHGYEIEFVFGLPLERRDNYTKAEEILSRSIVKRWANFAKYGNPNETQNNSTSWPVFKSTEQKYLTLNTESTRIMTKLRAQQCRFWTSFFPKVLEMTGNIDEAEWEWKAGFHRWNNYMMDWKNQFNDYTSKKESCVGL
Sequence of human AChE (hAChE; EC 3.1.1.7) (P22303 32-614): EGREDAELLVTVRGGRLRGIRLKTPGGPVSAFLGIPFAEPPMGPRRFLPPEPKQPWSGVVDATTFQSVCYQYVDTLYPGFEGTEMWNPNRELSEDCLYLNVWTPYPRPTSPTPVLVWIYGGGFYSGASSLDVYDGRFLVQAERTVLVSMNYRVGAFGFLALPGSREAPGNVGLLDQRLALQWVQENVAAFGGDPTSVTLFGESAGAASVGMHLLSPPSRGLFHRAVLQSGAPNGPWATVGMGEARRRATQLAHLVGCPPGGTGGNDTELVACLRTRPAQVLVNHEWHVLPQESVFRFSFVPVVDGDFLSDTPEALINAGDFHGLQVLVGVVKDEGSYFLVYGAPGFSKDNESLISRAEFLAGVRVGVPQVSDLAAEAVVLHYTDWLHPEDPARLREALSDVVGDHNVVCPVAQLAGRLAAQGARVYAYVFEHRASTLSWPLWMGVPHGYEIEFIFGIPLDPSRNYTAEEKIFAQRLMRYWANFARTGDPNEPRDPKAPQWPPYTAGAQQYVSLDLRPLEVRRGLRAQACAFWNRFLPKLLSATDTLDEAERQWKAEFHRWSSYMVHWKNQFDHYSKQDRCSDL

Structure (SMILES) | IC50 [1] | SI (hBChE/hAChE) [1] | IC50 [2] | Papp at 100 µM [3] | IC50 [4] | % of MAO-A activity (1 µM) [5] | % of MAO-A activity (10 µM) [5] | % of MAO-B activity (1 µM) [6] | % of MAO-B activity (10 µM) [6] | IC50 [7] | Papp [3] | CNS predicted availability [8] | IC50 [6] | effect on the viability of SH-SY5Y cells [9] | hepatotoxicity ([10]; 100 µM) | cell survival rate ([10]; 200 µM)
C#CCN(CC#C)CCCNc1c2c(nc3ccccc13)CCCC2.Cl.Cl [Compound 20, N,N-Di(prop-2-yn-1-yl)-N'-(1,2,3,4-tetrahydroacridin-9-yl)propane-1,3-diamine dihydrochloride] | 0.198 ± 0.024 µM | 0.39 | 0.078 ± 0.003 µM | 12.2 ± 1.12 ×10⁻⁶ cm/s | 31.4 ± 1.55 µM | 78% | 33% | 148% | 96% | 38.3 ± 1.75 µM |  |  |  |  |  | 
COc1ccc2nc3c(c(N)c2c1)CCCC3 [Compound 7-MEOTA, 7-methoxytacrine, reference compound] |  |  |  |  | 53.26 ± 0.38 µM | 41% | 42% | 78% | 76% | 44.4 ± 3.35 µM | 17 ± 3.6 ×10⁻⁶ cm/s | CNS+ (CNS + (high BBB permeation predicted): Pe (×10^−6 cm s^−1) > 4.0) |  |  |  | 
C#CCNCCCNc1c2c(nc3ccccc13)CCCC2.Cl.Cl [Compound 21, N-(Prop-2-yn-1-yl)-N'-(1,2,3,4-tetrahydroacridin-9-yl)propane-1,3-diamine dihydrochloride] | 0.095 ± 0.001 µM | 0.98 | 0.093 ± 0.003 µM | 6.07 ± 0.53 ×10⁻⁶ cm/s | 38.8 ± 0.75 µM | 47% | 54% | 88% | 90% | 25.9 ± 0.73 µM |  |  |  |  |  | 
Nc1c2c(nc3cc(Cl)ccc13)CCCC2 [6-Chlorotacrine, 6-chlorotacrine, reference compound] |  |  |  | 11 ± 0.5 ×10⁻⁶ cm/s | 50.4 ± 1.28 µM | 61% | 48% | 80% | 84% | 43.2 ± 1.17 µM |  | CNS+ (CNS + (high BBB permeation predicted): Pe (×10^−6 cm s^−1) > 4.0) |  |  |  | 
C=CCNc1c2c(nc3ccc(Oc4ccccc4)cc13)CCCC2.Cl [Compound 7, 7-Phenoxy-N-(prop-2-en-1-yl)-1,2,3,4-tetrahydroacridin-9-amine hydrochloride] | 1.12 ± 0.021 µM | 2.47 | 2.77 ± 0.133 µM | 4.22 ± 0.17 ×10⁻⁶ cm/s | 12.4 ± 0.44 µM | 99% | 90% | 5% | 2% | 10.3 ± 0.83 µM |  |  | 0.163 µM |  |  | 
C#CCNc1c2c(nc3ccccc13)CCCC2 [Compound 9] | 0.094 ± 0.0008 µM | 1.72 | 0.162 ± 0.008 µM |  |  | 94% | 56% | 83% | 61% |  |  |  |  | nearly no effect on the viability | nearly no hepatotoxicity | 91.38%
C#CCNc1c2c(nc3ccc(Oc4ccccc4)cc13)CCCC2.Cl [Compound 15, 7-Phenoxy-N-(prop-2-yn-1-yl)-1,2,3,4-tetrahydroacridin-9-amine hydrochloride] | 1.47 ± 0.024 µM | 0.45 | 0.659 ± 0.077 µM | 10.4 ± 0.94 ×10⁻⁶ cm/s | 23.4 ± 2.55 µM | 41% | 51% | 8% | 3% | 16.9 ± 0.77 µM |  |  | 0.04 µM and 0.0404 µM |  |  | 

Source: PMC9518283 (Journal of Enzyme Inhibition and Medicinal Chemistry, 2022)
